Data as given in patent US6156700A, “3-(1,2-Benzisothiazol- and isoxazol-5-yl)-2,4(1H,3H)-pyrimidinedione or thione and 3-(1,2-benzisothiazol- and isoxazol-5-yl)-4(3H)-pyrimidinone or thione herbicidal agents” (American Cyanmid Company, priority 1998, dated 2000).

Assays:
Galium, Galium aparine = experiment: Preemergence herbicidal evaluation, GALAP; assay type: in vivo; conditions: 0.2500 kg/ha
Outline: (§1)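 Greenhouse preemergence test with soil-surface spray of compound (aqueous acetone, approx. 0.0156–0.500 kg per hectare) just after planting. Injury was scored visually on a 0–9 scale at 4–5 weeks.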

[1] = system: Sicklepod, Cassia obtusifolia; experiment: Preemergence herbicidal evaluation, CASOB; assay type: in vivo, L.; conditions: 0.2500 kg/ha
Outline: as §1

CYPIR Rice Flatsedge = experiment: Postemergence weed control, flooded paddy (Table IV); assay type: in vivo, Cyperus iria; set-up: scale not given here
Outline: (§2)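 Containers holding 3 to 5 cm weeds and rice at the 1.5 to 2.5 leaf stage are flooded and kept 1.5 to 3 cm deep. Test material is applied directly into the water at about 0.0313 to 0.500 kg/ha, then plants are held in the greenhouse for three to four weeks before rating.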

[2] = system: Foxtail, Green, Setaria viridis; experiment: Postemergence herbicidal evaluation, SETVI; assay type: in vivo, (L.) Beau
Outline: (§3)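 Scoring four to five weeks after treatment used a 0–9 scale based on plant appearance versus control. Treatment: 40 psi spray of about 0.0157–0.500 kg/ha onto two-week seedlings, compound dispersed in acetone/water 50/50 with 0.5% TWEEN 20.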

[3] = system: Rice, Tebonnet, Oryza sativa; experiment: Preemergence herbicidal evaluation, ORYSAT; assay type: in vivo, (L.) Tebonnet; conditions: 0.2500 kg/ha
Outline: as §1

[4] = system: SAGPY Arrowhead (Pygmaea); experiment: Preemergence weed control, flooded paddy (Table III); assay type: in vivo, Sagittaria pygmaea; set-up: scale not given here
Procedure: (§4) Preemergence herbicidal activity under flooded paddy conditions is determined as follows: plant seeds or propagating organs are planted in the top 0.5 cm of silt loam soil in 32 oz. plastic containers with a diameter of 10.5 cm and no drainage holes. Water is added to these containers and maintained at 1.5 to 3 cm above the soil surface for the duration of the experiment. The test compounds are applied as aqueous/acetone mixtures 50/50 v/v pipetted directly into the flood water to give the equivalent of about 0.0313 to 0.500 kg/ha of active ingredient. The treated containers are placed on greenhouse benches and cared for in accordance with conventional greenhouse procedures. Three to four weeks after treatment, the test is terminated and each container is examined and herbicidal effect rated according to the rating system provided in Example 185. The compounds evaluated are reported by compound number given in Example 185.

[5] = system: Ragweed, Common, Ambrosia artemisifolia; experiment: Preemergence herbicidal evaluation, AMBEL; assay type: in vivo, L.; conditions: 0.2500 kg/ha
Outline: as §1

[6] = system: ECHORC Watergrass (Calif.); experiment: Preemergence weed control, flooded paddy (Table III); assay type: in vivo, Echinochloa oryzoides; set-up: scale not given here
Procedure: as §4

CYPSE Flatsedge = experiment: Postemergence weed control, flooded paddy (Table IV); assay type: in vivo, Cyperus serotinus; set-up: scale not given here
Outline: as §2

[7] = system: ECHORC Watergrass (Calif.); experiment: as above; assay type: in vivo, Echinochloa oryzoides; set-up: scale not given here
Outline: as §2

ORYSAT Rice, Tebonnet = experiment: Tolerance of transplanted rice to post-transplant application (Table III); assay type: in vivo, Oryza sativa; set-up: scale not given here; conditions: crop tolerance
Procedure: The tolerance of transplanted rice to post-transplanted herbicide applications is determined as follows: two ten-day-old rice seedlings (cv. Tebonnet) are transplanted into silt loam soil in 32 oz. plastic containers with a diameter of 10.5 cm and no drainage holes. After transplanting, the containers are flooded and the water level is maintained at 1.5 to 3 cm above the soil surface. Three days after transplanting, the flooded soil surface of the containers is treated with the selected aqueous/acetone 50/50 v/v mixture containing the test compounds to provide the equivalent of about 0.0313 to 0.500 kg/ha of active ingredient. The treated containers are placed on greenhouse benches, watered such that the water level is maintained as stated above, and cared for in accordance with conventional greenhouse procedures. Three to four weeks after treatment, the test is terminated and each container is examined and herbicidal effect rated according to the rating system provided in Example 185. The compounds evaluated are reported by compound number given in Example 185.

[8] = system: Wheat, Winter, cv Riband, Triticum aestivum; experiment: Preemergence herbicidal evaluation, TRZAWR; assay type: in vivo; conditions: 0.2500 kg/ha
Outline: as §1

[9] = system: Lambsquarters, Common, Chenopodium album; experiment: Preemergence herbicidal evaluation, CHEAL; assay type: in vivo, L.; conditions: 0.2500 kg/ha
Outline: as §1

[10] = system: Sicklepod, Cassia obtusifolia; experiment: Postemergence herbicidal evaluation, CASOB; assay type: in vivo, L.
Outline: as §3

[11] = system: Rice, Tebonnet, Oryza sativa; experiment: Postemergence herbicidal evaluation, ORYSAT; assay type: in vivo, (L.) Tebonnet
Outline: as §3

[12] = system: Morningglory Spp., Ipomoea Spp.; experiment: Preemergence herbicidal evaluation, IPOSS; assay type: in vivo; conditions: 0.2500 kg/ha
Text: Results of herbicide evaluation are expressed on a rating scale (0-9). The scale is based upon a visual observation of plant stand, vigor, malformation, size, chlorosis and overall plant appearance as compared with a control.
The preemergence herbicidal activity of the test compounds of the present invention is exemplified by the following tests in which the seeds of a variety of monocotyledonous and dicotyledonous plants are separately mixed with potting soil and planted on top of approximately one inch of soil in separate pint cups. After planting, the cups are sprayed with the selected aqueous acetone solution containing test compound in sufficient quantity to provide the equivalent of about 0.0156 to 0.500 kg per hectare of test compound per cup. The treated cups are then placed on greenhouse benches, watered and cared for in accordance with conventional greenhouse procedures. From four to five weeks after treatment, the tests are terminated and each cup is examined and rated according to the rating system provided in Example 185.
The compounds evaluated are reported by compound number given in Example 185.

[13] = system: Wheat, Winter, cv Riband, Triticum aestivum; experiment: Postemergence herbicidal evaluation, TRZAWR; assay type: in vivo
Outline: as §3

Row | SMILES | herbicide rating (0-9) (Galium, Galium aparine) | herbicide rating (0-9) [1] | herbicidal effect rating (CYPIR Rice Flatsedge; 0.1250 kg/ha) | herbicidal effect rating (CYPIR Rice Flatsedge; 0.2500 kg/ha) | herbicidal effect rating (CYPIR Rice Flatsedge; 0.5000 kg/ha) | herbicide rating (0-9) ([2]; 0.2500 kg/ha) | herbicide rating (0-9) [3] | herbicidal effect rating ([4]; 0.0313 kg/ha) | herbicidal effect rating ([4]; 0.0625 kg/ha) | herbicidal effect rating ([4]; 0.1250 kg/ha) | herbicidal effect rating ([4]; 0.2500 kg/ha) | herbicidal effect rating ([4]; 0.5000 kg/ha) | herbicide rating (0-9) [5] | herbicidal effect rating ([6]; 0.0313 kg/ha) | herbicidal effect rating ([6]; 0.0625 kg/ha) | herbicidal effect rating ([6]; 0.1250 kg/ha) | herbicidal effect rating ([6]; 0.2500 kg/ha) | herbicidal effect rating ([6]; 0.5000 kg/ha) | herbicidal effect rating (CYPSE Flatsedge; 0.1250 kg/ha) | herbicidal effect rating (CYPSE Flatsedge; 0.2500 kg/ha) | further results
1 | COc1ccc(C)cc1-c1nsc2ccc(-n3c(=O)cc(C(F)(F)F)n(C)c3=O)cc12 [Compound 1, 3-[3-(6-Methoxy-m-tolyl)-1,2-benzisothiazol-5-yl]-1-methyl-6-(trifluoromethyl)-2,4(1H,3H)-pyrimidinedione] | 9.0 | 9.0 | 9.0 | 9.0 | 9.0 | 9.0 | 7.5 | 3.3 | 5.0 | 6.7 | 8.3 | 8.5 | 9.0 | 9.0 | 9.0 | 9.0 | 9.0 | 9.0 | 3.0 | 5.5 | herbicide rating (0-9) ([2]; 0.0630 kg/ha): 9.0; herbicidal effect rating (CYPSE Flatsedge; 0.5000 kg/ha): 6.5; herbicidal effect rating ([7]; 0.1250 kg/ha): 6.5; herbicidal effect rating ([7]; 0.2500 kg/ha): 8.0; herbicidal effect rating ([7]; 0.5000 kg/ha): 9.0; herbicidal effect rating (ORYSAT Rice, Tebonnet; 0.0313 kg/ha): 4.7; herbicidal effect rating (ORYSAT Rice, Tebonnet; 0.0625 kg/ha): 4.7; herbicidal effect rating (ORYSAT Rice, Tebonnet; 0.1250 kg/ha): 5.3; herbicidal effect rating (ORYSAT Rice, Tebonnet; 0.2500 kg/ha): 7.7; herbicidal effect rating (ORYSAT Rice, Tebonnet; 0.5000 kg/ha): 7.0; herbicide rating (0-9) [8]: 6.0; herbicide rating (0-9) [9]: 9.0; herbicide rating (0-9) ([10]; 0.0630 kg/ha): 9.0; herbicide rating (0-9) ([10]; 0.2500 kg/ha): 8.0; herbicide rating (0-9) ([11]; 0.0630 kg/ha): 4.3; herbicide rating (0-9) ([11]; 0.2500 kg/ha): 5.0; herbicide rating (0-9) [12]: 4.0; herbicide rating (0-9) ([13]; 0.0630 kg/ha): 5.3; herbicide rating (0-9) ([13]; 0.2500 kg/ha): 5.5
2 | Cn1c(C(F)(F)F)cc(=O)n(-c2ccc3snc(-c4ccccc4)c3c2)c1=O [Compound 4, 1-Methyl-3-(3-phenyl-1,2-benzisothiazol-5-yl)-6-(trifluoromethyl)-2,4(1H,3H)-pyrimidinedione] | 9.0 | 9.0 | 9.0 | 9.0 | 9.0 | 9.0 | 7.0 | 2.0 | 2.0 | 6.0 | 9.0 | 9.0 | 9.0 | 9.0 | 9.0 | 9.0 | 9.0 | 9.0 | 7.0 | 7.0 | herbicidal effect rating (CYPSE Flatsedge; 0.5000 kg/ha): 9.0; herbicidal effect rating ([7]; 0.1250 kg/ha): 9.0; herbicidal effect rating ([7]; 0.2500 kg/ha): 9.0; herbicidal effect rating ([7]; 0.5000 kg/ha): 9.0; herbicidal effect rating (ORYSAT Rice, Tebonnet; 0.0313 kg/ha): 4.0; herbicidal effect rating (ORYSAT Rice, Tebonnet; 0.0625 kg/ha): 7.0; herbicidal effect rating (ORYSAT Rice, Tebonnet; 0.1250 kg/ha): 7.0; herbicidal effect rating (ORYSAT Rice, Tebonnet; 0.2500 kg/ha): 8.0; herbicidal effect rating (ORYSAT Rice, Tebonnet; 0.5000 kg/ha): 8.0; herbicide rating (0-9) [8]: 7.0; herbicide rating (0-9) [9]: 9.0; herbicide rating (0-9) ([10]; 0.2500 kg/ha): 9.0; herbicide rating (0-9) ([11]; 0.2500 kg/ha): 3.0; herbicide rating (0-9) [12]: 9.0; herbicide rating (0-9) ([13]; 0.2500 kg/ha): 3.0
3 | CCc1ccc(-c2nsc3ccc(-n4c(=O)cc(C(F)(F)F)n(C)c4=O)cc23)cc1 [Compound 5, 3-[3-(p-Ethylphenyl)-1,2-benzisothiazol-5-yl]-1-methyl-6-(trifluoromethyl)-2,4 (1H,3H)-pyrimidinedione] | 6.0 | 9.0 | 9.0 | 9.0 | 9.0 | 9.0 | 7.0 | 0.0 | 0.0 | 2.0 | 7.0 | 7.0 | 9.0 | 9.0 | 9.0 | 9.0 | 9.0 | 9.0 | 0.0 | 0.0 | herbicidal effect rating (CYPSE Flatsedge; 0.5000 kg/ha): 0.0; herbicidal effect rating ([7]; 0.1250 kg/ha): 6.0; herbicidal effect rating ([7]; 0.2500 kg/ha): 9.0; herbicidal effect rating ([7]; 0.5000 kg/ha): 9.0; herbicidal effect rating (ORYSAT Rice, Tebonnet; 0.0313 kg/ha): 2.0; herbicidal effect rating (ORYSAT Rice, Tebonnet; 0.0625 kg/ha): 3.0; herbicidal effect rating (ORYSAT Rice, Tebonnet; 0.1250 kg/ha): 4.0; herbicidal effect rating (ORYSAT Rice, Tebonnet; 0.2500 kg/ha): 5.0; herbicidal effect rating (ORYSAT Rice, Tebonnet; 0.5000 kg/ha): 7.0; herbicide rating (0-9) [8]: 4.0; herbicide rating (0-9) [9]: 9.0; herbicide rating (0-9) ([10]; 0.2500 kg/ha): 9.0; herbicide rating (0-9) ([11]; 0.2500 kg/ha): 3.0; herbicide rating (0-9) [12]: 9.0; herbicide rating (0-9) ([13]; 0.2500 kg/ha): 2.0
4 | COC(=O)C(C)Oc1ccc(C)cc1-c1nsc2ccc(-n3c(=O)cc(C(F)(F)F)n(C)c3=O)cc12 (stereo not shown) [Compound 3] | 7.6 | 9.0 | 9.0 | 9.0 | 9.0 | 9.0 | 6.8 | 0.0 | 2.0 | 6.0 | 8.0 | 9.0 | 9.0 | 9.0 | 9.0 | 9.0 | 9.0 | 9.0 | 0.0 | 0.0 | herbicide rating (0-9) ([2]; 0.0630 kg/ha): 9.0; herbicidal effect rating (CYPSE Flatsedge; 0.5000 kg/ha): 0.0; herbicidal effect rating ([7]; 0.1250 kg/ha): 0.0; herbicidal effect rating ([7]; 0.2500 kg/ha): 2.0; herbicidal effect rating ([7]; 0.5000 kg/ha): 4.0; herbicidal effect rating (ORYSAT Rice, Tebonnet; 0.0313 kg/ha): 2.0; herbicidal effect rating (ORYSAT Rice, Tebonnet; 0.0625 kg/ha): 2.0; herbicidal effect rating (ORYSAT Rice, Tebonnet; 0.1250 kg/ha): 3.0; herbicidal effect rating (ORYSAT Rice, Tebonnet; 0.2500 kg/ha): 4.0; herbicidal effect rating (ORYSAT Rice, Tebonnet; 0.5000 kg/ha): 4.0; herbicide rating (0-9) [8]: 6.3; herbicide rating (0-9) [9]: 9.0; herbicide rating (0-9) ([10]; 0.0630 kg/ha): 9.0; herbicide rating (0-9) ([10]; 0.2500 kg/ha): 9.0; herbicide rating (0-9) ([11]; 0.0630 kg/ha): 7.2; herbicide rating (0-9) ([11]; 0.2500 kg/ha): 9.0; herbicide rating (0-9) [12]: 9.0; herbicide rating (0-9) ([13]; 0.0630 kg/ha): 8.8; herbicide rating (0-9) ([13]; 0.2500 kg/ha): 8.0
